Among the test systems are 786-0 renal; ACHN renal; BT-549 breast; IGROV1 ovarian; LOX IMVI melanoma; NCI-H23 lung; NCI-H460 lung; NCI-H522 lung; SF-268 CNS; SK-MEL-28 melanoma.
Assay in all cases: growth of human tumour cells (NCI), 48 h

“And” between values parts separate entries of the source, which are not always exact repeats. Equal values may be shown once.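 All cell lines were grown in 96-well plates and treated with compound for 48 hours. At the GI50, growth is halved. TGI marks complete inhibition of growth.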

On to `CC(C)(C)c1nn(-c2ccccc2)c2c1C(=O)CSC(c1ccccc1Cl)N2` (centres undefined), for which the GI50 in the assay on 786-0 renal was 3.32 µM; with ACHN renal, 4.87 µM; in the assay with BT-549 breast, 2.91 µM; in the assay with IGROV1 ovarian, 3.52 µM; with LOX IMVI melanoma it was 2.74 µM; with NCI-H23 lung, 2.39 µM. Besides, the GI50 with NCI-H460 lung is 2.8 µM; with NCI-H522 lung, 0.65 µM; in the assay on SF-268 CNS it was 2.76 µM; in the assay on SK-MEL-28 melanoma, 5.18 µM. Also, the TGI in the assay on 786-0 renal is 15.1 µM; with ACHN renal, 19.3 µM; in the assay with BT-549 breast, 12.9 µM; in the assay with IGROV1 ovarian, 43 µM; with LOX IMVI melanoma, 15.7 µM; in the assay on NCI-H23 lung, 17.9 µM. Moreover, the TGI worked out at 12.4 µM in the assay with NCI-H460 lung, 7.34 µM with NCI-H522 lung, 18.5 µM in the assay on SF-268 CNS and 22.5 µM with SK-MEL-28 melanoma.
As to `Cc1c(-c2c(-c3ccc(F)o3)sc3ncnc(O[C@H](Cc4ccccc4OCc4ccnn4CC(F)(F)F)C(=O)O)c23)ccc(OCCN2CCN(C)CC2)c1Cl`, the GI50 with 786-0 renal is 3.97 µM; in the assay with ACHN renal, 6.46 µM; in the assay with BT-549 breast, 2.13 µM; with IGROV1 ovarian it was 5.68 µM; in the assay on LOX IMVI melanoma, 3.03 µM; in the assay on NCI-H23 lung, 2.59 µM. Besides, the GI50 in the assay with NCI-H460 lung is 4.17 µM; with NCI-H522 lung it was 0.148 µM; in the assay with SF-268 CNS, 4.46 µM; with SK-MEL-28 melanoma, 3.84 µM. Further, the TGI came to 8.33 µM with 786-0 renal; 19 µM with ACHN renal; 5.65 µM in the assay on BT-549 breast; 14.8 µM with IGROV1 ovarian; 6.8 µM with LOX IMVI melanoma; 7.6 µM in the assay with NCI-H23 lung. The TGI was determined as 10 µM in the assay on NCI-H460 lung, 4.58 µM in the assay on NCI-H522 lung, 11.4 µM in the assay on SF-268 CNS and 7.82 µM in the assay on SK-MEL-28 melanoma.
For the compound `O=C(CN1CCN(CCCOc2c(-c3ccccc3)oc3ccccc3c2=O)CC1)Nc1ccc(Cl)cc1C(=O)c1ccccc1Cl`, the GI50 in the assay on 786-0 renal is 5.58 µM; in the assay on ACHN renal, 14.8 µM; with BT-549 breast, 14.1 µM; in the assay on IGROV1 ovarian, 6.16 µM; with LOX IMVI melanoma, 3.87 µM; in the assay with NCI-H23 lung, 12.4 µM. The GI50 was 3.64 µM with NCI-H460 lung, 16.6 µM in the assay with NCI-H522 lung, 23.2 µM in the assay with SF-268 CNS and 3.66 µM in the assay with SK-MEL-28 melanoma. The TGI was 19.4 µM with 786-0 renal; over 100 µM with ACHN renal; 40.5 µM with BT-549 breast; 47.3 µM in the assay on IGROV1 ovarian; 14.4 µM in the assay with LOX IMVI melanoma; 41.9 µM in the assay on NCI-H23 lung. Also, the TGI with NCI-H460 lung was over 100 µM; in the assay on NCI-H522 lung, 57.2 µM; with SF-268 CNS, over 100 µM; with SK-MEL-28 melanoma, 15.2 µM.
On to `CCOC(=O)N1CCc2cc(OC)c(OC)c3c2c1cc1cc(OC)c(OC)cc13`, for which the TGI in the assay on 786-0 renal is over 100 µM; with ACHN renal it was over 95 µM; in the assay with BT-549 breast it was 3.65 µM; with IGROV1 ovarian, over 100 µM; in the assay with LOX IMVI melanoma, 52.3 µM; in the assay on NCI-H23 lung, 55.6 µM. Moreover, the TGI in the assay with NCI-H460 lung is 28.5 µM; in the assay with NCI-H522 lung it was 4.3 µM; with SF-268 CNS it was over 100 µM; with SK-MEL-28 melanoma, over 100 µM.
`COc1ncc(-c2ccc3nccc(-c4ccnnc4)c3c2)cc1NS(=O)(=O)c1ccc(F)cc1F`: the GI50 was 0.00651 µM and < 0.01 µM in the assay with 786-0 renal; 0.0104 µM and < 0.0114 µM with ACHN renal; 0.00392 µM and < 0.01 µM with BT-549 breast; under 0.01 µM in the assay on IGROV1 ovarian; 0.00758 µM and < 0.0106 µM in the assay on LOX IMVI melanoma; 0.029 µM and 0.0174 µM in the assay on NCI-H23 lung. Besides, the GI50 in the assay on NCI-H460 lung is 0.00406 µM and < 0.01 µM; in the assay with NCI-H522 lung, 0.0147 µM and < 0.0104 µM; with SF-268 CNS it was 0.0127 µM and 0.0148 µM; with SK-MEL-28 melanoma, 0.00213 µM and < 0.01 µM. Moreover, the TGI was 0.0791 µM and 0.106 µM with 786-0 renal; over 74.3 µM with ACHN renal; 0.0688 µM and 0.0434 µM in the assay on BT-549 breast; 0.00752 µM and < 0.01 µM in the assay with IGROV1 ovarian; 1.12 µM and 1.26 µM in the assay on LOX IMVI melanoma; > 8.67 µM and 6.46 µM in the assay with NCI-H23 lung. Further, the TGI was > 10 µM and 15.3 µM in the assay with NCI-H460 lung; 2.16 µM and 2.58 µM in the assay with NCI-H522 lung; > 10 µM and 9.23 µM in the assay on SF-268 CNS; 0.0395 µM and 0.36 µM in the assay with SK-MEL-28 melanoma.
Turning to `O=C(/C=C/c1cccnc1)NCCCCC1CCCN(C(=O)c2ccccc2)C1` (centres undefined), the GI50 was over 64.3 µM with 786-0 renal; over 91 µM in the assay with ACHN renal; 0.0615 µM in the assay with IGROV1 ovarian; 5.67 µM with LOX IMVI melanoma; 30.3 µM in the assay with NCI-H23 lung; 0.0227 µM with NCI-H460 lung. Moreover, the GI50 in the assay on NCI-H522 lung is under 0.01 µM; in the assay on SF-268 CNS, over 28.4 µM; in the assay on SK-MEL-28 melanoma, over 100 µM. In addition, the TGI in the assay with 786-0 renal, in the assay on ACHN renal, with BT-549 breast, in the assay with IGROV1 ovarian, in the assay on LOX IMVI melanoma and with NCI-H23 lung was over 100 µM each time. Besides, the TGI in the assay with NCI-H460 lung, in the assay with NCI-H522 lung, with SF-268 CNS and in the assay on SK-MEL-28 melanoma was over 100 µM each time.
For `COc1ccc(-n2nnnc2-c2c[nH]c3c(F)cc(F)cc23)cc1`, the GI50 in the assay on 786-0 renal was 31.5 µM; in the assay on ACHN renal, over 100 µM; in the assay on BT-549 breast, over 100 µM; in the assay with IGROV1 ovarian it was over 100 µM; in the assay with LOX IMVI melanoma it was 86.6 µM; in the assay on NCI-H23 lung, over 100 µM. For the same compound, the GI50 is over 100 µM in the assay with NCI-H460 lung, 86 µM in the assay on NCI-H522 lung, 40.3 µM in the assay with SF-268 CNS and over 100 µM in the assay on SK-MEL-28 melanoma. Also, the TGI in the assay on 786-0 renal, with ACHN renal, in the assay on BT-549 breast, in the assay with IGROV1 ovarian, in the assay with LOX IMVI melanoma and in the assay with NCI-H23 lung was over 100 µM each time. The TGI in the assay on NCI-H460 lung, in the assay with NCI-H522 lung, with SF-268 CNS and in the assay on SK-MEL-28 melanoma was over 100 µM each time.
For the compound `C=C(CN1C(=O)[C@H]2CCCN2C(=O)c2ccccc21)c1ccc(C(=O)O)cc1`, the GI50 in the assay on 786-0 renal, in the assay with ACHN renal, in the assay on BT-549 breast, with IGROV1 ovarian, in the assay with LOX IMVI melanoma and with NCI-H23 lung was over 100 µM in each case. Also, the GI50 with NCI-H460 lung, in the assay with NCI-H522 lung, with SF-268 CNS and with SK-MEL-28 melanoma was over 100 µM in each case. The TGI in the assay on 786-0 renal, in the assay with ACHN renal, in the assay with BT-549 breast, in the assay on IGROV1 ovarian, in the assay on LOX IMVI melanoma and with NCI-H23 lung was over 100 µM throughout. Moreover, the TGI in the assay on NCI-H460 lung, with NCI-H522 lung, with SF-268 CNS and with SK-MEL-28 melanoma was over 100 µM throughout.

(Values after PubChem BioAssay (NCI).)
